Test results: patent US20240217947A1, “Morpholinylquinazoline Compound, Pharmaceutical compositions thereof and Use Thereof” (SHANGHAI YINGLI PHARMACEUTICAL CO., LTD, priority 2022, published 2024)

Legend:
PI3Kδ = PI3Kδ (Homo sapiens, UniProt O00329); assay: PI3Kδ enzyme activity inhibition IC50 evaluation assay (ADP-Glo Kinase Assay); format: biochemical; details: ATP 25 μM, PIP2 50 μg/mL, 1 hour room temperature, read-out: PI3K-δ IC50
Procedure: (§1) Effec Example 1 IC50 evaluation assay for PI3Kα, PI3Kδ, PI3Kβ and PI3Kγ enzyme activity inhibition
(§2) The experiment was performed using the ADP-Glo Kinase Assay kit, following the instructions. The following buffer solutions were prepared: 50 mM HEPES, pH 7.5, 3 mM MgCl2, 1 mM EGTA, 100 mM NaCl, 0.03% CHAPS, 2 mM DTT. The test compound samples were dissolved in DMSO and added to the screening system at a certain starting concentration such as 10 μM, 3-fold dilution, while setting up both DMSO control and no kinase control. The optimal concentrations of PI3Kα, PI3Kδ, PI3Kβ and PI3Kγ enzymes, substrate (PIP2) and ATP were prepared in buffer. The enzyme reaction system included: buffer, ATP 25 μM, kinase substrate (PIP2, 50 μg/mL), kinases [PI3Kα (0.15 μg/mL), PI3Kδ (1.2 μg/mL), PI3Kβ (0.3 μg/mL) and PI3Kγ (2.5 μg/mL)], etc. The reaction system was reacted at room temperature for 1 hour. The reaction was terminated by adding a termination reagent (ADP-Glo reagent, 5 μL), and the ADP content in the system was detected using a detection reagent (Kinase Detection Reagent, 10 μL). Signal data were collected using the Envision instrument. Calculate the percentage of (%) inhibition according to the following formula: % inhibition=(DMSO control signal value−sample signal value)/(DMSO control signal value−no-kinase control signal value). The IC50 value was obtained by fitting the curve using the formula Y=Bottom+(Top-Bottom)/(1+(IC50/X)^HillSlope).

HDAC6 = biological target: T1, HDAC6 (Homo sapiens, UniProt Q9UBN7); assay: HDAC6 enzyme activity inhibition IC50 evaluation experiment; format: biochemical; details: HDAC6 5 nM, acetylated peptide 11 μM, trypsin, fluorescence
T1 sequence (Q9UBN7 1-1215): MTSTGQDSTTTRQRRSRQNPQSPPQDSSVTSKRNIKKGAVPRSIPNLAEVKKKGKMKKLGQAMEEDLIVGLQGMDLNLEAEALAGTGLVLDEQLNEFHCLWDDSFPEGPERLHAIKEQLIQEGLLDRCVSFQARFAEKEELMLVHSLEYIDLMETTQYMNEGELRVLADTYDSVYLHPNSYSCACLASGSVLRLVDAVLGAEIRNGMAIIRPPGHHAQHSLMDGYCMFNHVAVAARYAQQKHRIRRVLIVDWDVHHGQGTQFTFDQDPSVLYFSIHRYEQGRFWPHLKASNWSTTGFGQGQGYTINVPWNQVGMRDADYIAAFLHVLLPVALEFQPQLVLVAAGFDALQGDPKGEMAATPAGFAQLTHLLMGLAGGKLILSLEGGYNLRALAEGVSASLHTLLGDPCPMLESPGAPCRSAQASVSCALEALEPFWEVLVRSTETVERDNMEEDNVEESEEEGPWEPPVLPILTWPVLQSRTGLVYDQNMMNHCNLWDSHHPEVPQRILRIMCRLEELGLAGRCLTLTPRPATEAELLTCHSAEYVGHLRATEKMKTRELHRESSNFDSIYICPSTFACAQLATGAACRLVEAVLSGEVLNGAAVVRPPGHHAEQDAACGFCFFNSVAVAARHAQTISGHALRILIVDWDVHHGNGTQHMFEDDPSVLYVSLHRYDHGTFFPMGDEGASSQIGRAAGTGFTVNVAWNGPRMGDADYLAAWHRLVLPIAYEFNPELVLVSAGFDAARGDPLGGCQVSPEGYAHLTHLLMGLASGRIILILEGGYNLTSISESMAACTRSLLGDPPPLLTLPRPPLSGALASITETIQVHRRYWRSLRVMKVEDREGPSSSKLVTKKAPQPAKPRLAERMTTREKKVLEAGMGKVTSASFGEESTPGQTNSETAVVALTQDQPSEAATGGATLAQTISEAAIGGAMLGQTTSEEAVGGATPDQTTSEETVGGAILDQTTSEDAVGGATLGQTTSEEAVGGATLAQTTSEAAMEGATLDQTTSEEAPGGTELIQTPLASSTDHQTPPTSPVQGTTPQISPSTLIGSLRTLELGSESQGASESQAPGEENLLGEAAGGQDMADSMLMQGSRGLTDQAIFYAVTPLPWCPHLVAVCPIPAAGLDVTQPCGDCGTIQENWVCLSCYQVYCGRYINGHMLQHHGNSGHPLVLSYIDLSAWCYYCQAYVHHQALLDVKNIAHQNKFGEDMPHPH
Procedure: (§3) Effect Example 2 HDAC1, HDAC2, HDAC3, HDAC6 enzyme activity inhibition IC50 evaluation experiment
(§4) Buffer solution (50 mM Tris 7.5, 0.01% Tween-20, 50 mM NaCl) was prepared according to the kit instructions, and the enzyme solution and substrate solution (acetylated peptide with the addition of trypsin) were prepared using the buffer solution. The test compound samples were dissolved with DMSO and added to the screening system at a certain starting concentration such as 10 μM, 3-fold dilution, while setting up a DMSO control and no-enzyme control. The enzyme reaction system includes: buffer, enzyme [final concentration: HDAC1=10 nM, HDAC2=4 nM, HDAC3=7 nM, HDAC6=5 nM], substrate (acetylated peptide) [final concentration: Peptide(HDAC1)=8 μM, Peptide(HDAC2)=10 μM, Peptide(HDAC3)=5 μM, Peptide(HDAC6)=11 μM], trypsin [final concentration: Trypsin(HDAC1,2,3)=0.05 μM, Trypsin(HDAC6)=0.1 μM], etc. The enzymes and compounds were reacted at room temperature for 15 min. After adding the substrate and Trypsin, centrifugation was performed for 1 min, and the fluorescence signal data (excitation wavelength 355 nM/emission wavelength 460 nm) was read continuously for 60 min using Envision, and the linear reaction segment was selected to obtain the slope and thus calculate the inhibition rate at that concentration. The IC50 value was obtained by fitting the curve using the formula Y=Bottom+(Top-Bottom)/(1+(IC50/X)^HillSlope).

HDAC1 = HDAC1 (Homo sapiens, UniProt Q13547); assay: HDAC1 enzyme activity inhibition IC50 evaluation experiment; format: biochemical; details: HDAC1 10 nM, acetylated peptide 8 μM, trypsin, fluorescence
Chain of HDAC1 (Q13547 whole entry, species assumed): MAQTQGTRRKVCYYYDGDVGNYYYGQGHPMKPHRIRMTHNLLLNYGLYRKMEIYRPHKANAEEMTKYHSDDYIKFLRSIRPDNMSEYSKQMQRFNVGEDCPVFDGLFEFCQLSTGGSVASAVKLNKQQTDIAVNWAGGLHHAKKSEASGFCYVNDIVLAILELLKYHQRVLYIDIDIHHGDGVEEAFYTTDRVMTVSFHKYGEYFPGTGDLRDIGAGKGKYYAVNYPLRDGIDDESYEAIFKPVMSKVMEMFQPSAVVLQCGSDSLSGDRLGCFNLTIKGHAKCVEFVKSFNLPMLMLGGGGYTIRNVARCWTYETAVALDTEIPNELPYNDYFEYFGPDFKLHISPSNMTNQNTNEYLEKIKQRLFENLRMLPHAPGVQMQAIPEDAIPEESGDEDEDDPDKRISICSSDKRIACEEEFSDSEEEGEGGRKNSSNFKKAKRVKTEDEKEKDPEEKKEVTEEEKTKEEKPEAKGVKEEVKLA
Procedure: as §3, §4

HDAC2 = HDAC2 (Homo sapiens, UniProt Q92769); assay: HDAC2 enzyme activity inhibition IC50 evaluation experiment; format: biochemical; details: HDAC2 4 nM, acetylated peptide 10 μM, trypsin, fluorescence
Chain of HDAC2 (Q92769 whole entry, species assumed): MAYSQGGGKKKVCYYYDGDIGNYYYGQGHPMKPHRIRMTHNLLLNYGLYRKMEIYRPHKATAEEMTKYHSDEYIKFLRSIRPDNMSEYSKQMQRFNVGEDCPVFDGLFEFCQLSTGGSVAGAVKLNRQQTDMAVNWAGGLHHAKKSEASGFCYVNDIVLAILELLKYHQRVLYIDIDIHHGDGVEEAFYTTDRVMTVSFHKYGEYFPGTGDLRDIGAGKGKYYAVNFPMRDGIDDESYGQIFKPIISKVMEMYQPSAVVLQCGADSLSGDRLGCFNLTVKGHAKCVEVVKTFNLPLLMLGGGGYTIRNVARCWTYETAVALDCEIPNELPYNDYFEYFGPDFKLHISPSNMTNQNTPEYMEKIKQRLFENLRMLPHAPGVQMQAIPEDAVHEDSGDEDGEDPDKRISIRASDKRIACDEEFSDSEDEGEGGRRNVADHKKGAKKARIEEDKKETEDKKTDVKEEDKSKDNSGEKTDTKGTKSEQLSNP
Procedure: as §3, §4

PI3Kα = PI3Kα (Homo sapiens, UniProt P42336); assay: PI3Kα enzyme activity inhibition IC50 evaluation assay (ADP-Glo Kinase Assay); format: biochemical; details: ATP 25 μM, PIP2 50 μg/mL, 1 hour room temperature, read-out: PI3K-α IC50
Chain of PI3Kα (P42336 whole entry, species assumed): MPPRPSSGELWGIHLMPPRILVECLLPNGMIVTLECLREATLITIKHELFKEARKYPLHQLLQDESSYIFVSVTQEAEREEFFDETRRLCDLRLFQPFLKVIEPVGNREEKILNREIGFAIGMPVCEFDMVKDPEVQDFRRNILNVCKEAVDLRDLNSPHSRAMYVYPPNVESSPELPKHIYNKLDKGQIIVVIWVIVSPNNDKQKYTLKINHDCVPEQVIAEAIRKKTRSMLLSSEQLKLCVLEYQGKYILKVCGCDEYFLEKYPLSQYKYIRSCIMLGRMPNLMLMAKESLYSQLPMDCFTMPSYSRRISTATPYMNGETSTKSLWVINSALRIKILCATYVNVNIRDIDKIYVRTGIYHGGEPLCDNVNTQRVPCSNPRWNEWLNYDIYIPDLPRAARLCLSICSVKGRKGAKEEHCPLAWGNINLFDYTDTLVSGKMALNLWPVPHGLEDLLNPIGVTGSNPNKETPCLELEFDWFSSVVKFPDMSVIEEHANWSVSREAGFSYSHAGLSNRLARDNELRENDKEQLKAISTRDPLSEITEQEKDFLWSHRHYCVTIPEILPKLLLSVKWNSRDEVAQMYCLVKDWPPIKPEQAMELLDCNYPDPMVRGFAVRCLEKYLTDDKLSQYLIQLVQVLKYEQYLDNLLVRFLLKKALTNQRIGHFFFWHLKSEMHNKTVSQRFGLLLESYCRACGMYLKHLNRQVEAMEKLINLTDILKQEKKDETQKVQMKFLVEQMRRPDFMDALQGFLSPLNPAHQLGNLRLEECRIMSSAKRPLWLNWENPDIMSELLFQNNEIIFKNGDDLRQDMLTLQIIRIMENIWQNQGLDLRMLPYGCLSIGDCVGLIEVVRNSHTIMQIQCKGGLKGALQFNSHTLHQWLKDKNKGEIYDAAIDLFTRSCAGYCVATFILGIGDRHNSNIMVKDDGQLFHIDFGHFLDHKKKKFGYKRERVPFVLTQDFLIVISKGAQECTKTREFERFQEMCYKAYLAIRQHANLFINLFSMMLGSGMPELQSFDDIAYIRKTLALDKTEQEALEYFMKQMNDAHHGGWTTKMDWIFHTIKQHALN
Chain of PI3Kα (P27986 whole entry partner, species assumed): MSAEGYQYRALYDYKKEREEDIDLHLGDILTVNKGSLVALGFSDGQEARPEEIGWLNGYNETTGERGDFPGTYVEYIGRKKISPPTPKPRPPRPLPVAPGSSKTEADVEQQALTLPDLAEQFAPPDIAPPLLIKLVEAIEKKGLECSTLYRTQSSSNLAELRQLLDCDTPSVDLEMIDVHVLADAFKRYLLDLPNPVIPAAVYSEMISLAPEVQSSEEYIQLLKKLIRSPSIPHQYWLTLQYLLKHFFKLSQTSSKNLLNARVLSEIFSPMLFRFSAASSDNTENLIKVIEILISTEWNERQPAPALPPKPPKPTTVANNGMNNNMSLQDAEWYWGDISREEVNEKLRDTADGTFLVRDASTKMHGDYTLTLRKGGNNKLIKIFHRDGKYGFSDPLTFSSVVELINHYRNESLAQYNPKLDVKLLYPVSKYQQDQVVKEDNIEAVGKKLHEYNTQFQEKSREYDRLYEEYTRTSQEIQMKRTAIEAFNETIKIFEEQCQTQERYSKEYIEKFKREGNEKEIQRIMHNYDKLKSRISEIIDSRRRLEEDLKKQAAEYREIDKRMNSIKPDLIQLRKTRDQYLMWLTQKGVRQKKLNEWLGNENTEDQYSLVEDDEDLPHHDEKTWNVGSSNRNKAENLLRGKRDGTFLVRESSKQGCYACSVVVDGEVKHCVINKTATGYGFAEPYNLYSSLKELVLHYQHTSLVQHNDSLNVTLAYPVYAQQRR
Procedure: as §1, §2

PI3Kβ = PI3Kβ (Homo sapiens, UniProt P42338); assay: PI3Kβ enzyme activity inhibition IC50 evaluation assay (ADP-Glo Kinase Assay); format: biochemical; details: ATP 25 μM, PIP2 50 μg/mL, 1 hour room temperature, read-out: PI3K-β IC50
Procedure: as §1, §2

PI3Kγ = PI3Kγ (Homo sapiens, UniProt P48736); assay: PI3Kγ enzyme activity inhibition IC50 evaluation assay (ADP-Glo Kinase Assay); format: biochemical; details: ATP 25 μM, PIP2 50 μg/mL, 1 hour room temperature, read-out: PI3K-γ IC50
Chain of PI3Kγ (P48736 whole entry, species assumed): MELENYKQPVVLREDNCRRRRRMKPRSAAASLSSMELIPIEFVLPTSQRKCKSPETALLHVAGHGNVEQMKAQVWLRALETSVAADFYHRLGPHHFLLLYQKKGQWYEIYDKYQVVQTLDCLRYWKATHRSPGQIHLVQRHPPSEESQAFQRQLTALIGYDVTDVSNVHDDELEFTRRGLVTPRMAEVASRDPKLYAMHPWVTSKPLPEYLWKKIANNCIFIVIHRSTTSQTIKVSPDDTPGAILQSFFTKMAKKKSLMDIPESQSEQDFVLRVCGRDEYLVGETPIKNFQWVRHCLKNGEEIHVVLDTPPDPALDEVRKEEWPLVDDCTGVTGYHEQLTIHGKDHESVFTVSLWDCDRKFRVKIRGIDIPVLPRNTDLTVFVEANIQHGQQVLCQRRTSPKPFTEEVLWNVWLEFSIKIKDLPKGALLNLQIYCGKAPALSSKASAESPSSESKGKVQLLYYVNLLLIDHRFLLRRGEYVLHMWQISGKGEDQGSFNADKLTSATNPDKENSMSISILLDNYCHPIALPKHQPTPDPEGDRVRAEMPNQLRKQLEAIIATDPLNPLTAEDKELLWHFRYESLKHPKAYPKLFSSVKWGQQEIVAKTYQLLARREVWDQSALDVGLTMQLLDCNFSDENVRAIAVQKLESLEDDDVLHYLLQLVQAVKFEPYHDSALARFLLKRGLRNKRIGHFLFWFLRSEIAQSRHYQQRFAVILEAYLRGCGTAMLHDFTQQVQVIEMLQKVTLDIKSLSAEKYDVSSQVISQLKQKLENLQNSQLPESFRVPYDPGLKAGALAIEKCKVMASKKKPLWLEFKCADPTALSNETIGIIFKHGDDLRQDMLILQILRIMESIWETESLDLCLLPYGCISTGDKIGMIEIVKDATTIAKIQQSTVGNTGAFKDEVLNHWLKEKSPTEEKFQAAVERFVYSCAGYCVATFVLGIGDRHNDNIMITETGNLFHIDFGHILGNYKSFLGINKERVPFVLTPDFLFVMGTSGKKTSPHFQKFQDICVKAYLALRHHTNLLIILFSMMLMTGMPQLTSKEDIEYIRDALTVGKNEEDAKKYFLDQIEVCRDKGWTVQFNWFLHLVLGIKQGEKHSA
Procedure: as §1, §2

[1] = system: relapsed and/or refractory B-cell malignant hematologic neoplasms; details: patients with relapsed and/or refractory B-cell malignant hematologic neoplasms, orally 80 mg once daily for 4 weeks; cited from earlier work

Chain of PI3Kδ (O00329 whole entry, species assumed): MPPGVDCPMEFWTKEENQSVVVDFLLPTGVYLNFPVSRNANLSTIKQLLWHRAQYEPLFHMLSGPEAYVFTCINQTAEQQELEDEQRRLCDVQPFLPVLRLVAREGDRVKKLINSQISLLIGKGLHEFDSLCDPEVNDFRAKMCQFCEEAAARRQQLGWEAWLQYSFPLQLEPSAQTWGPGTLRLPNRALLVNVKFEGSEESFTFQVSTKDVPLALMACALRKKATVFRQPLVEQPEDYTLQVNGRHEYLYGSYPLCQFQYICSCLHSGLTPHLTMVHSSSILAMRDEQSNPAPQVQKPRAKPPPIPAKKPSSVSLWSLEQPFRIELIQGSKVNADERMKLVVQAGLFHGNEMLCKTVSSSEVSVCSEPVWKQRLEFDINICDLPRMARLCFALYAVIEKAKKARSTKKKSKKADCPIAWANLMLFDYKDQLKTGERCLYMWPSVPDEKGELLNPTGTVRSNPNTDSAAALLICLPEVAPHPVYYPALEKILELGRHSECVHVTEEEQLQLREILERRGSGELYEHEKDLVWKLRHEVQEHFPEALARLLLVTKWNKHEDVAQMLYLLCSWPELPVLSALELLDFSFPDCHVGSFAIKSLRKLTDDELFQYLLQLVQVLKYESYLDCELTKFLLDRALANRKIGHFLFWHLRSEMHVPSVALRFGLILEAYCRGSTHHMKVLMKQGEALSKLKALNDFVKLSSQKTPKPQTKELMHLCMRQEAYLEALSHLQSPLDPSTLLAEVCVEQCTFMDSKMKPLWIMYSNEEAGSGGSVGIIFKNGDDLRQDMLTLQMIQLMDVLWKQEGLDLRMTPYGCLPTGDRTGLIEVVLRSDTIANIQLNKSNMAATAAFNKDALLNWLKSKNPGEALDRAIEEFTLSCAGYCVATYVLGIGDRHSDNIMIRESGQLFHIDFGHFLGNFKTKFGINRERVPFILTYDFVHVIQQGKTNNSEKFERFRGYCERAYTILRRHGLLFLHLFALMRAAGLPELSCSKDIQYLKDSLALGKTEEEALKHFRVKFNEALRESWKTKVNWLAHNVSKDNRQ
Chain of PI3Kδ (P27986 whole entry partner, species assumed): as the sequence (P27986 whole entry partner, species assumed) above

Row | IC50 (PI3Kδ) | IC50 (HDAC6) | IC50 (HDAC1) | IC50 (HDAC2) | IC50 (PI3Kα) | IC50 (PI3Kβ) | IC50 (PI3Kγ) | Compound | clinical benefit in clinical studies [1] | safety profile in clinical studies [1]
1 | 0.01 to 0.1 µM | 0.1 to 1 µM | 1 to 10 µM |  |  |  |  | COc1ncc(-c2nc(N3CCOCC3)nc3c(CN4CCc5cc(C(=O)NO)cc(F)c5C4)cc(F)cc23)cc1NS(C)(=O)=O [Compound 43] |  | 
2 | 0.01 to 0.1 µM | 0.01 to 0.1 µM | 0.1 to 1 µM | 0.1 to 1 µM |  |  |  | COc1ncc(-c2nc(N3CCOCC3)nc3c(OC4CCN(c5cc(C(=O)NO)no5)CC4)cc(F)cc23)cc1NS(C)(=O)=O [Compound 44] |  | 
3 | ≤ 0.01 µM | > 10 µM |  |  | 0.1 to 1 µM | 0.1 to 1 µM | > 10 µM | COc1ncc(-c2nc(N3CCOCC3)nc3c(CN4CCC(C(C)(C)O)CC4)cc(F)cc23)cc1NS(C)(=O)=O [YY-20394, N-(5-(6-fluoro-8-((4-(2-hydroxypropyl-2-yl)piperidin-1-yl)methyl)-2-morpholine-quinazolin-4-yl)-2-methoxypyridin-3-yl)methanesulfonamide, reference compound] | clinical benefit | favorable safety profile

More lines, now with the values behind:

Row | Compound | IC50 (PI3Kδ) | IC50 (HDAC6) | IC50 (HDAC1) | IC50 (HDAC2) | IC50 (PI3Kα) | IC50 (PI3Kβ) | IC50 (PI3Kγ) | clinical benefit in clinical studies [1] | safety profile in clinical studies [1]
4 | COc1ncc(-c2nc(N3CCOCC3)nc3c(CNc4ncc(C(=O)NO)cc4F)cc(F)cc23)cc1NS(C)(=O)=O [Compound 35] | ≤ 0.01 µM | 0.01 to 0.1 µM | ≤ 0.01 µM |  |  |  |  |  | 
5 | COc1ncc(-c2nc(N3CCOCC3)nc3c(CNc4ccc(C(=O)NO)cc4F)cc(F)cc23)cc1NS(C)(=O)=O [Compound 36] | 0.01 to 0.1 µM | 0.01 to 0.1 µM | 0.1 to 1 µM |  |  |  |  |  | 
6 | COc1ncc(-c2nc(N3CCOCC3)nc3c(OC4CCC(c5ccc(C(=O)NO)cc5F)CC4)cc(F)cc23)cc1NS(C)(=O)=O (stereo not drawn) [Compound 41] | 0.1 to 1 µM | 0.1 to 1 µM | 1 to 10 µM |  |  |  |  |  | 
7 | COc1ncc(-c2nc(N3CCOCC3)nc3c(OC4CCN(c5c(F)cc(C(=O)NO)cc5F)CC4)cc(F)cc23)cc1NS(C)(=O)=O [Compound 42] | 0.01 to 0.1 µM | 0.1 to 1 µM | 1 to 10 µM |  |  |  |  |  | 
8 | COc1ncc(-c2nc(N3CCOCC3)nc3c(OCc4ncc(C(=O)NO)cc4F)cc(F)cc23)cc1NS(C)(=O)=O [Compound 45] | 1 to 10 µM | 0.01 to 0.1 µM | 0.1 to 1 µM | 1 to 10 µM |  |  |  |  | 
